Reference: patent EP1090023B1 (GLAXO GROUP LIMITED, priority 1998, dated 1999)

Assays:
Format in all cases: cell-based
adenosine 2a = adenosine 2a (Homo sapiens, UniProt P29274); test: Agonist activity against adenosine receptor subtypes, CHO cells with cAMP response element/SPAP reporter (basal cAMP); conditions: ratio to EC50 of NECA; transfected CHO cells; effect on basal cAMP via SPAP
Protocol: (§1) Compounds of the invention were tested for in vitro and in vivo biological activity in accordance with the following screens: • (1) Agonist activity against adenosine 2a, adenosine 1 and adenosine 3 receptor subtypes.
(§2) Agonist selectivity of compounds against other human adenosine receptors was determined using Chinese hamster ovary (CHO) cells transfected with the gene for the relevant human adenosine receptor following a method based on that of Castanon and Spevak, 1994 . The CHO cells were also transfected with cyclic AMP response elements promoting the gene for secreted placental alkaline phosphatase (SPAP) (Wood, 1995). The effect of test compounds was determined by their effects on basal levels of cAMP (A2a) or on forskolin-enhanced cAMP (A1 and A3) as reflected by changes in levels of SPAP. EC50 values for compounds were then determined as a ratio to that of the non-selective agonist N-ethyl carboxamide adenosine (NECA).

adenosine 3 = target: T1, adenosine 3 (Homo sapiens, UniProt P0DMS8); test: Agonist activity against adenosine receptor subtypes, CHO cells with cAMP response element/SPAP reporter (forskolin-enhanced cAMP); conditions: ratio to EC50 of NECA; transfected CHO cells; effect on forskolin-enhanced cAMP via SPAP
T1 sequence (P0DMS8 1-318): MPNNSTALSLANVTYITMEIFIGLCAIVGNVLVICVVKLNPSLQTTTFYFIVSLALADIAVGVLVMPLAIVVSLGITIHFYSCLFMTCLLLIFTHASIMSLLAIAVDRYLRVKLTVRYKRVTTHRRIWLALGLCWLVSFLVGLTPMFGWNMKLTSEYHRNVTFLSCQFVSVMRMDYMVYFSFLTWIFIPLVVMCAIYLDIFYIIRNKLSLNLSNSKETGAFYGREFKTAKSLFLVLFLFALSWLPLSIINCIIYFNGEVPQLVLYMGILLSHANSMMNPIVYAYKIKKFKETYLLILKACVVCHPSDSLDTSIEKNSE
Protocol: as §1, §2

adenosine 1 = target: T2, adenosine 1 (Homo sapiens, UniProt P30542); test: as above; conditions: ratio to EC50 of NECA; transfected CHO cells; effect on forskolin-enhanced cAMP via SPAP
T2 sequence (P30542 1-326): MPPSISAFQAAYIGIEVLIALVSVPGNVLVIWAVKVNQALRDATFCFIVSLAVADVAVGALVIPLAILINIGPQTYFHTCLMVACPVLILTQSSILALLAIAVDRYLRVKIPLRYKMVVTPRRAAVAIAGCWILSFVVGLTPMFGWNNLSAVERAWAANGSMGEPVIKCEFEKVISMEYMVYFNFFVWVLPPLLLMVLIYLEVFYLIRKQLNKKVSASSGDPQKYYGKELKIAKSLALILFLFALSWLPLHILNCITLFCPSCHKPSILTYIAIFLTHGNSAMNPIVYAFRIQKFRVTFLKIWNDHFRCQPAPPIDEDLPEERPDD
Protocol: as §1, §2

Sequence of adenosine 2a (P29274 whole entry): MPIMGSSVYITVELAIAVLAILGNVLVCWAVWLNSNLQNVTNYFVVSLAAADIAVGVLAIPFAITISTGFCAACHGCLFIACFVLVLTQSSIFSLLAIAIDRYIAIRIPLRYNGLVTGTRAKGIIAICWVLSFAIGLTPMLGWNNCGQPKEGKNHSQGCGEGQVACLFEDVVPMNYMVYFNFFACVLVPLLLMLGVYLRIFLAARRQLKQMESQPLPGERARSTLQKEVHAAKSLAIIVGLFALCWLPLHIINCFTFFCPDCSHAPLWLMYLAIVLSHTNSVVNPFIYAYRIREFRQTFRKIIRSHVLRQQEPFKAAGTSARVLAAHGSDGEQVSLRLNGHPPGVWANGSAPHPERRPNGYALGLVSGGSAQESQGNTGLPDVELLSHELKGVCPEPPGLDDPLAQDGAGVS

Molecule | A2a (EC50 values as a ratio of that of NECA) (adenosine 2a) | A3 (EC50 values as a ratio of that of NECA) (adenosine 3) | A1 (EC50 values as a ratio of that of NECA) (adenosine 1)
CCc1nc([C@H]2O[C@@H](n3cnc4c(NCC(c5ccccc5)c5ccccc5)nc(NCCNC(=N)N)nc43)[C@H](O)[C@@H]2O)no1.O=CO.O=CO [Example 29, N-(2-{6-(2,2-Diphenyl-ethylamino)-9-[5R-(5-ethyl-[1,2,4]oxadiazol-3-yl)-3R,4S-dihydroxy-tetrahydro-furan-2R-yl]-9H-purin-2-ylamino}-ethyl)-guanidine diformate] | 30.7 | >284 | >2147
CCn1cnc(C2OC(n3cnc4c(NCC(c5ccccc5)c5ccccc5)nc(NC5CCC(N)CC5)nc43)C(O)C2O)n1.O=CO.O=CO [Example 30, (2R,3R,4S,5R)-2-[2-(trans-4-Amino-cyclohexylamino)-6-(2,2-diphenyl-ethylamino)-purin-9-yl]-5-(1-ethyl-1H-[1,2,4]triazol-3-yl)-tetrahydro-furan-3,4-diol diformate] | 13.27 | >206 | 2948.1
CCn1cnc([C@H]2O[C@@H](n3cnc4c(NCC(c5ccccc5)c5ccccc5)nc(NCCc5cn(C)cn5)nc43)[C@H](O)[C@@H]2O)n1.O=CO.O=CO [Example 31, (2R,3R,4S,5R)-2-{6-(2,2-Diphenyl-ethylamino)-2-[2-(1-methyl-1H-imidazol-4-yl)-ethylamino]-purin-9-yl}-5-(1-ethyl-1H-[1,2,4]triazol-3-yl)-tetrahydro-furan-3,4-diol diformate] | 8.79 | >206 | 1753.5
CCn1cnc([C@H]2O[C@@H](n3cnc4c(NCC(c5ccccc5)c5ccccc5)nc(NCCN5CCCCC5)nc43)[C@H](O)[C@@H]2O)n1.O=CO.O=CO [Example 32, (2R,3R,4S,5R)-2-[6-(2,2-Diphenyl-ethylamino)-2-(2-piperidin-1-yl-ethylamino)-purin-9-yl]-5-(1-ethyl-1H-[1,2,4]triazol-3-yl)-tetrahydro-furan-3,4-diol diformate] | 11.85 | >206 | 1217.4
CCC(CC)Nc1nc(NCCc2cn(C)cn2)nc2c1ncn2[C@@H]1O[C@H](c2nnc(C3CC3)o2)[C@@H](O)[C@H]1O.O=CO.O=CO [Example 37] | 6.39 | >173 | 581.9
CCC(CC)Nc1nc(N[C@@H]2CCNC2)nc2c1ncn2[C@@H]1O[C@H](c2nnc(C3CC3)o2)[C@@H](O)[C@H]1O.O=CO.O=CO [Example 40, (2S,3S,4R,5R)-2-(5-Cyclopropyl-[1,3,4]oxadiazol-2-yl)-5-[6-(1-ethyl-propylamino)-2-(pyrrolidin-3R-ylamino)-purin-9-yl]-tetrahydro-furan-3,4-diol diformate] | 56.86 | >173 | 5084.2
CCc1cc([C@H]2O[C@@H](n3cnc4c(NC(CC)CC)nc(NCCN5CCCCC5)nc43)[C@H](O)[C@@H]2O)no1.O=CO.O=CO [Example 43, (2R,3R,4S,5R)-2-[6-(1-Ethyl-propylamino)-2-(2-piperidin-1-yl-ethylamino)-purin-9-yl]-5-(5-ethylisoxazol-3-yl)tetrahydrofuran-3,4-diol diformate] | 3.25 | >1124 | 21.82
(2R,3R,4S,5R)-2-[6-(2,2-Diphenyl-ethylamino)-2-(1R-hydroxy-2-phenyl-ethylamino)-purin-9-yl]-5-(1-ethyl-1H-[1,2,4]triazol-3-yl)-tetrahydro-furan-3,4-diol formate [Example 35] | 6.33 | >240 | 5261.1
(2R,3R,4S,5S)-2-[6-(2,2-Diphenyl-ethylamino)-2-(2-piperidin-1-yl-ethylamino)-purin-9-yl]-5-[5-methyl-[1,3,4]thiadiazol-2-yl)-tetrahydro-furan-3,4-diol diformate [Example 28] | 37.3 | >245 | 3371

The next lines start with the values.

A2a (EC50 values as a ratio of that of NECA) (adenosine 2a) | A3 (EC50 values as a ratio of that of NECA) (adenosine 3) | A1 (EC50 values as a ratio of that of NECA) (adenosine 1) | Molecule
34.25 | >206 | 4999.7 | CCn1cnc([C@H]2O[C@@H](n3cnc4c(NCC(c5ccccc5)c5ccccc5)nc(NCCc5ccccn5)nc43)[C@H](O)[C@@H]2O)n1.O=CO.O=CO [Example 33, (2R,3R,4S,5R)-2-[6-(2,2-Diphenyl-ethylamino)-2-(2-pyridin-2-yl-ethylamino)-purin-9-yl]-5-(1-ethyl-1H-[1,2,4]triazol-3-yl)-tetrahydro-furan-3,4-diol diformate]
10.97 | >231 | 1980.8 | CCn1cnc(C2OC(n3cnc4c(NCC(c5ccccc5)c5ccccc5)nc(NC5CCNC5)nc43)C(O)C2O)n1.O=CO.O=CO [Example 34, (2R,3R,4S,5R)-2-[6-(2,2-Diphenyl-ethylamino)-2-(pyrrolidin-3R-ylamino)-purin-9-yl]-5-(1-ethyl-1H-[1,2,4]triazol-3-yl)-tetrahydro-furan-3,4-diol diformate]
45.64 | >173 | 365.6 | CCC(CC)Nc1nc(NCCN2CCCCC2)nc2c1ncn2C1OC(c2nnc(C3CC3)o2)C(O)C1O.O=CO.O=CO (stereo not drawn) [Example 38]
129.5 | >173 | >=1067 | CCC(CC)Nc1nc(NC2CCCC2)nc2c1ncn2[C@@H]1O[C@H](c2nnc(C3CC3)o2)[C@@H](O)[C@H]1O.O=CO.O=CO [Example 39, (2R,3R,4S,5S)-2-[2-Cyclopentylamino-6-(1-ethyl-propylamino)-purin-9-yl]-5-(5-cyclopropyl-[1,3,4]oxadiazol-2-yl)-tetrahydro-furan-3,4-diol diformate]
74.29 | >249 | 1921.5 | CCC(CC)Nc1nc(NCCC2CCCCC2)nc2c1ncn2C1OC(c2nnc(C3CC3)o2)C(O)C1O.O=CO.O=CO [Example 41, (2R,3R,4S,5S)-2-[2-(2-Cyclohexyl-ethylamino)-6-(1-ethyl-propylamino)-purin-9-yl]-5-(5-cyclopropyl-[1,3,4]oxadiazol-2-yl)-tetrahydro-furan-3,4-diol diformate]
41.04 | >87 | 306.9 | CCC(CC)Nc1nc(N[C@H](CO)C(C)C)nc2c1ncn2[C@@H]1O[C@H](c2nnc(C3CC3)o2)[C@@H](O)[C@H]1O.O=CO [Example 42, (2R,3R,4S,5S)-2-[6-(1-Ethyl-propylamino)-2-(1S-hydroxymethyl-2-methyl-propylamino)-purin-9-yl]-5-(5-cyclopropyl-[1,3,4]oxadiazol-2-yl)-tetrahydro-furan-3,4-diol formate]
